PubChem BioAssay AID1919009 (Molecular Pharmacology Branch, DTP, NCI, 2023)
Where “and” joins values, the source holds several entries; their conditions need not be identical. Equal values may be shown once.

System: K24384-001-R-PDC complex spheroid growth
Assay: Anticancer human tumor K24384-001-R-PDC patient-derived pancreatic adenocarcinoma cell line growth inhibition [AhR]
Conditions: for viability, T/C: stronger effect = lower value
Excerpt: Multicellular complex tumor spheroid response to aryl hydrocarbon receptor antagonists in combination with a variety of drugs and investigational agents in selected tumor cell lines
The current study was undertaken to assess response to aryl hydrocarbon receptor antagonists in combination with standard-of-care drugs and investigational agents in solid tumor complex spheroid models. Complex spheroids include a stromal component modeled by human endothelial cells (HUVEC) and fibroblasts modeled by human mesenchymal stem cells (MSCs). The concentration ranges selected for each drug and investigational agent were based upon clinically achievable concentrations if the clinical Cmax of the agent was known.
Compounds. The drugs and investigational agents: BAY 2416964 (NSC825713), GNF351 (NSC835774), CH-223191 (NSC835775), CPI-455 (NSC825282), aza-TdCyd (NSC777586), decitabine (NSC127716), belinostat (NSC758774), entinostat (NSC756642), pevonedistat (NSC761192), tazemetostat (NSC777109), talazoparib (NSC765396), olaparib (NSC753686), selinexor (NSC780203), nedisertib (M3814, NSC802822), bortezomib (NSC756655), venetoclax (NSC766270), doxorubicin (NSC123127), elimusertib (BAY189344, NSC800525), ceralasertib (AZD6738, NSC777638), TAK-243 (NSC785004), alisertib (NSC759677), etoposide (NSC141540), topotecan (NSC609699), eribulin (NSC707389), gemcitabine (NSC613327), carboplatin (NSC241240), cisplatin (NSC119875), and SN-38 (NSC673596) were obtained from the National Cancer Institute (NCI) Developmental Therapeutics Program Chemical Repository (32). The FDA-approved anticancer drug set is available from the Developmental Therapeutics Program at https://dtp.cancer.gov/organization/dscb/obtaining/available plates.htm. […] The stock solutions were prepared in dimethyl sulfoxide (DMSO, Sigma-Aldrich, St. Louis, MO, cat. D2650), except for the platinum compounds which were prepared in saline (Quality Biological, Gaithersburg, MD, cat. 114-055-101), at 800-fold the tested concentration and stored at -70 degrees C prior to their use. All drugs and investigational agents were tested over a range starting from a high concentration at or near the clinical Cmax and decreasing in half-log increments. If the clinical Cmax for an agent had not been determined, the highest concentration tested was 10 microM (Table 1).
Cell Culture. All cells were maintained in an incubator at 37 degrees C and 5% CO2 with 95% humidity. The PDC lines were cultured according to standard operating procedures established by the NCI PDMR (https://pdmr.cancer.gov). Briefly, all PDCs were thawed and cultured in Matrigel-coated flasks prepared with a working solution of 1X Ham's F-12 nutrient mix, without supplementation (Invitrogen, Waltham, MA, cat. 11765054), 100 U/mL penicillin-streptomycin (Invitrogen, cat. 15140122), and 2.5% Matrigel (Corning Inc., Corning, NY, cat. 354248) for the first three passages. All PDCs were cultured in complete DMEM/F-12 media containing advanced DMEM/F-12 (Invitrogen, cat. 12634028), 4.9% defined fetal bovine serum, heat inactivated (HyClone Laboratories Inc., Logan, UT, cat. SH30070.03HI), 389 ng/mL hydrocortisone (Sigma-Aldrich, cat. H4001), 9.7 ng/mL human EGF recombinant protein (Invitrogen, cat. PHG0313), 23.4 microg/mL adenine (Sigma-Aldrich, cat. A2786), 97.3 U/mL penicillin-streptomycin (Invitrogen, cat. 15140122), 1.9 mM L-glutamine (Invitrogen, cat. 25030081), and 9.7 microM Y-27632 dihydrochloride (Tocris Bioscience, Bristol, United Kingdom, cat. 1254). The PDCs were cultured in complete DMEM/F12 media without 10 microM Y-27632 dihydrochloride for at least two passages prior to the screen. The established cell lines NCI-H1341 and […] were cultured in DMEM/F-12, HEPES (Invitrogen, cat. 11330032), 5% defined fetal bovine serum (HyClone Laboratories Inc., cat. SH30070.03), ITS premix universal culture supplement [insulin (5 microg/mL), transferrin (5 microg/mL), and selenious acid (5 ng/mL)] […]
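Wherever viability, T/C is given: percent of DMSO vehicle-treated spheroid viability set as 100%.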

IC50 (curve of compound) | Compound | viability, T/C (compound 0.0316 µM) | viability, T/C (compound 0.1 µM) | viability, T/C (compound 0.316 µM) | viability, T/C (compound 1 µM) | viability, T/C (compound 3.16 µM) | viability, T/C (compound 10 µM) | also measured
> 10000 nM | CC(C)c1c(-c2ccccc2)nc2c(C#N)c[nH]n2c1=O | 108% and 110% and 104% | 95% and 105% (2×) | 98.1% and 105% and 104% | 93.7% and 93.4% and 98.7% | 91.1% and 103% (2×) | 91.9% and 98.8% and 81% | 
93.2 nM and 92.7 nM and 202 nM | CC1COCCN1c1cc(-c2ccnn2C)c2ccnc(-c3ccn[nH]3)c2n1 (stereo not drawn) | 82.7% and 80.5% and 89% | 47.8% and 48.9% and 65% | 30.6% and 29.8% and 41.7% | 27.8% and 28.6% and 29.4% |  |  | viability, T/C (compound 0.00316 µM): 93% and 95.6% and 116%; viability, T/C (compound 0.01 µM): 92.2% and 102% and 116%
6470 nM and 4310 nM and 7580 nM | CC1COCCN1c1cc(C2(S(C)(=N)=O)CC2)nc(-c2ccnc3[nH]ccc23)n1 (stereo not drawn) | 107% and 105% and 126% | 98.2% and 113% and 97.1% | 105% and 102% and 95.6% | 85% and 85.7% and 89.4% | 71.8% and 56.9% and 59.7% | 37.3% and 32.7% and 45.1% | 
> 100 nM and 54.2 nM | CC[C@@]1(O)C(=O)OCc2c1cc1n(c2=O)Cc2cc3c(CN(C)C)c(O)ccc3nc2-1 | 77.6% and 75.8% and 57.6% | 53.6% and 53.5% and 41.5% |  |  |  |  | viability, T/C (compound 0.000316 µM): 107% and 108% and 98.2%; viability, T/C (compound 0.001 µM): 99.3% and 117% and 102%; viability, T/C (compound 0.00316 µM): 95.4% and 87.5% and 95.7%; viability, T/C (compound 0.01 µM): 89.1% and 80% and 82.3%
1410 nM and 2650 nM and 1830 nM | COc1cc(C2c3cc4c(cc3C(OC3OC5COC(C)OC5C(O)C3O)C3COC(=O)C23)OCO4)cc(OC)c1O (stereo not drawn) | 106% and 96.2% and 98% | 86.7% and 100% and 103% | 60.8% and 83.3% and 80.6% | 53.5% and 62.9% and 58.8% | 48.5% and 51% and 43.7% | 39% and 34.7% and 37.7% | 
> 10000 nM | COc1cc(Nc2ncc3c(n2)-c2ccc(Cl)cc2C(c2c(F)cccc2OC)=NC3)ccc1C(=O)O | 97.3% and 91.9% and 85.7% | 68.5% and 72.4% and 74.3% | 63.9% and 60% and 69.9% | 44.3% and 55.1% and 50.6% | 52.4% and 54.8% and 52.6% | 55.5% and 62.7% and 57% | 

More lines, now with the values behind:

Compound | IC50 (curve of compound) | viability, T/C (compound 0.0316 µM) | viability, T/C (compound 0.1 µM) | viability, T/C (compound 0.316 µM) | viability, T/C (compound 1 µM) | viability, T/C (compound 3.16 µM) | viability, T/C (compound 10 µM) | also measured
CC(C)CC(NC(=O)C(Cc1ccccc1)NC(=O)c1cnccn1)B(O)O (stereo not drawn) | 12 nM and 13.3 nM and 6.03 nM |  |  |  |  |  |  | viability, T/C (compound 0.000949 µM): 105% and 92.1% and 95.6%; viability, T/C (compound 0.003 µM): 108% and 98.8% and 96.7%; viability, T/C (compound 0.00949 µM): 62.6% and 70.1% and 20.1%; viability, T/C (compound 0.03 µM): 2.24% and 1.22% and 0.66%; viability, T/C (compound 0.0949 µM): 0.59% and 0.38% and 0.4%; viability, T/C (compound 0.3 µM): 0.39% and 0.36% and 1.49%
CC(CO)NC(=O)c1cc(-c2ccc(Cl)cc2)nn(-c2cnn(C)c2)c1=O (stereo not drawn) |  |  |  |  |  |  |  | IC50 (compound alone, run of 05/31/2022): > 10000 nM
CC1(C)CCC(CN2CCN(c3ccc(C(=O)NS(=O)(=O)c4ccc(NCC5CCOCC5)c([N+](=O)[O-])c4)c(Oc4cnc5[nH]ccc5c4)c3)CC2)=C(c2ccc(Cl)cc2)C1 | 7030 nM and > 10000 nM | 104% (2×) and 108% | 90.7% and 115% and 103% | 90% and 103% and 106% | 111% and 105% and 92.7% | 126% and 88.2% and 84.7% | 25.9% and 60.7% and 62.5% | 
CCN(c1cc(-c2ccc(CN3CCOCC3)cc2)cc(C(=O)NCc2c(C)cc(C)[nH]c2=O)c1C)C1CCOCC1 | > 3000 nM |  |  |  |  |  |  | viability, T/C (compound 0.00949 µM): 108% and 104% and 103%; viability, T/C (compound 0.03 µM): 116% and 114% and 95.3%; viability, T/C (compound 0.0949 µM): 120% and 111% and 97.5%; viability, T/C (compound 0.3 µM): 87.1% and 95.9% and 103%; viability, T/C (compound 0.949 µM): 98.3% and 89% and 90%; viability, T/C (compound 3 µM): 101% (2×) and 87.2%
CCc1c2c(nc3ccc(O)cc13)-c1cc3c(c(=O)n1C2)COC(=O)[C@]3(O)CC | 20.9 nM and 48.4 nM and 58.2 nM |  |  |  |  |  |  | viability, T/C (compound 0.000949 µM): 70.9% and 79.9% and 78.5%; viability, T/C (compound 0.003 µM): 67% and 71.9% and 67.1%; viability, T/C (compound 0.00949 µM): 58.6% and 52.8% and 65%; viability, T/C (compound 0.03 µM): 43.8% and 54.9% and 51.5%; viability, T/C (compound 0.0949 µM): 38.5% and 51% and 50.3%; viability, T/C (compound 0.3 µM): 27.5% and 39.2% and 36.9%
COc1ccc([C@@H](O)c2cc(-c3ncnc4cc(N5CCOCC5)ccc34)c(F)cc2Cl)nn1 | 5510 nM and 7030 nM and > 10000 nM | 107% and 86.3% and 109% | 101% (2×) and 104% | 96.8% and 94.6% and 105% | 76% and 81.3% and 72.5% | 63.3% and 73.9% and 71.7% | 37.4% and 39.9% and 49.7% | 
